Reference: patent publication US10736897B2, “Compounds and methods of use thereof for treatment of cancer” (Araxes Pharma LLC, priority 2017, dated 2020)

Biological target: T1, KRAS G12C 1-169, his-tagged protein, GDP-loaded (Homo sapiens, UniProt P01116, G12C)
T1 construct: KRAS G12C 1-169, his-tagged protein, GDP-loaded; His tag
Experiment: Biochemical assay: covalent modification of KRAS G12C measured by mass spectrometry (RapidFire/TOF or Q-Exactive)
Type: binding
Conditions: Modification Activity; modification percentage from deconvoluted MS peak intensities; compound concentration and incubation time for Table 2 not stated
Protocol: Test compounds are prepared as 10 mM stock solutions in DMSO (Fisher cat # BP-231-100). KRAS G12C 1-169, his-tagged protein, GDP-loaded is diluted to 2 μM or 0.5 μM in buffer (20 mM Hepes, 150 mM NaCl, 1 mM MgCl2). Compounds are tested for activity as follows:
Compounds are diluted to 50× final test concentration in DMSO in 96-well storage plates. Compound stock solutions are vortexed before use and observed carefully for any sign of precipitation. Dilutions are as follow: • For 100 μM final compound concentration, compounds are diluted to 5000 μM (5 μL 10 mM compound stock+5 μL DMSO and mixed well by pipetting. • For 30 μM final compound concentration, compounds are diluted to 1500 μM (3 μL 10 mM compound stock+17 μL DMSO) and mixed well by pipetting. • For 10 μM final compound concentration, compounds are diluted to 500 μM (2 μL 10 mM compound stock+38 μL DMSO) and mixed well by pipetting. 49 μL of the stock protein solution is added to each well of a 96-well PCR plate (Fisher cat #1423027). 1 μl of the diluted 50× compounds are added to appropriate wells in the PCR plate using 12-channel pipettor. Reactions are mixed carefully and thoroughly by pipetting up/down with a 200 μL multi-channel pipettor. The plate is sealed well with aluminum plate seal, and stored in drawer at room temperature for 10 minutes, 30 minutes, 2 hours or 24 hours. 5 μL of 2% formic acid (Fisher cat # A117) in de-ionized H2O is then added to each well followed by mixing with a pipette. The plate is then resealed with aluminum seal and stored on dry ice until analyzed as described below.
The above described assays are analyzed by mass spectrometry according to one of the following two procedures:
The MS instrument is set to positive polarity, 2 GHz resolution, and low mass (1700) mode and allowed to equilibrate for 30 minutes. The instrument is then calibrated, switched to acquisition mode and the appropriate method loaded.
After another 30 minute equilibration time, a blank batch (i.e., buffer) is run to ensure equipment is operating properly. The samples are thawed at 37° C. for 10 minutes, briefly centrifuged, and transfer to the bench top. Wells A1 and H12 are spiked with 1 μL 500 μM internal standard peptide, and the plates centrifuged at 2000×g for 5 minutes. The method is then run and masses of each individual well recorded.
The masses (for which integration data is desired) for each well are pasted into the platemap and exported from the analysis. Masses for the internal standards are exported as well. The data at 50 ppm is extracted for the +19 charge state, and identity of well A1 is assigned using the internal standard spike and integrated. Peak data is exported as a TOF list and the above steps are repeated individually, for the +20, 21, 22, 23, 24, and 25 charge states.
The masses and peak intensities of KRAS G12C protein species are measured using a Dionex RSLCnano system (Thermo Scientific) connected to a Q Exactive Plus mass spectrometer (Thermo Scientific).
[…] of sample is each loaded onto a Aeris™ 3.6 μm WIDEPORE C4 200 Å, LC Column 50×2.1 mm column maintained at 40° C. at a flow rate of 600 μL/min with […] (0.1% formic acid in acetonitrile). The liquid chromatography conditions are 20% solvent B for 1 minute, 20% to 60% solvent B for 1.5 minutes, 60% to 90% solvent for 0.5 minute, 90% solvent B for 0.2 minute, 90% to 20% solvent B for 0.2 minute, and then equilibrated for 1.6 minute before the following sample injection. The flow rate is maintained at 600 μL/min throughout the sample analysis.
The mass spectrometer is operated in profile mode at a resolution of 17500, 5 microscans, using 50 msec max injection time and an AGC target of 1×10^6, and a full mass range from 800-1850 m/z is recorded. The HCD trapping gas is optimized for maximum sensitivity for intact proteins. […]

| SMILES | Binding % |
| --- | --- |
| C=CC(=O)N1C[C@H](C)N(c2ncnc3c(F)c(-c4c(C)ccc5cnn(C)c45)c(Cl)cc23)C[C@H]1C (atropisomer, axis not shown) [Compound 8, 1-((2R,5S)-4-((R)-6-chloro-7-(1,6-dimethyl-1H-indazol-7-yl)-8-fluoroquinazolin-4-yl)-2,5-dimethylpiperazin-1-yl)prop-2-en-1-one] | +++ (+++ indicates binding activity greater than 85%) |
| C=CC(=O)N1[C@H](C)CN(c2ncnc3c(F)c(-c4c(C)ccc5cnn(C)c45)c(Cl)cc23)C[C@@H]1C (atropisomer, axis not shown) [Compound 9, 1-((2S,6R)-4-((S)-6-chloro-7-(1,6-dimethyl-1H-indazol-7-yl)-8-fluoroquinazolin-4-yl)-2,6-dimethylpiperazin-1-yl)prop-2-en-1-one] | + (+ indicates binding activity greater than 0% and up to 50%) |
| C=CC(=O)N1[C@H](C)CN(c2ncnc3c(F)c(-c4c(C)ccc5cnn(C)c45)c(Cl)cc23)C[C@@H]1C (atropisomer, axis not shown) [Compound 10, 1-((2S,6R)-4-((R)-6-chloro-7-(1,6-dimethyl-1H-indazol-7-yl)-8-fluoroquinazolin-4-yl)-2,6-dimethylpiperazin-1-yl)prop-2-en-1-one] | ++ (++ indicates binding activity from 50 to 85%) |
| C=CC(=O)N1C[C@H](C)N(c2ncnc3c(F)c(-c4c(C)ccc5[nH]nc(N)c45)c(Cl)cc23)C[C@H]1C [Compound 5, 1-((2R,5S)-4-((R)-7-(3-amino-5-methyl-1H-indazol-4-yl)-6-chloro-8-fluoroquinazolin-4-yl)-2,5-dimethylpiperazin-1-yl)prop-2-en-1-one] | ++ (++ indicates binding activity from 50 to 85%) |
| C=CC(=O)N1C[C@H](C)N(c2ncnc3c(F)c(-c4c(C)ccc5[nH]nc(N)c45)c(Cl)cc23)C[C@H]1C [Compound 6, 1-((2R,5S)-4-((S)-7-(3-amino-5-methyl-1H-indazol-4-yl)-6-chloro-8-fluoroquinazolin-4-yl)-2,5-dimethylpiperazin-1-yl)prop-2-en-1-one] | + (+ indicates binding activity greater than 0% and up to 50%) |
| C=CC(=O)N1C[C@H](C)N(c2ncnc3c(F)c(-c4c(C)ccc5cnn(C)c45)c(Cl)cc23)C[C@H]1C [Compound 7, 1-((2R,5S)-4-((S)-6-chloro-7-(1,6-dimethyl-1H-indazol-7-yl)-8-fluoroquinazolin-4-yl)-2,5-dimethylpiperazin-1-yl)prop-2-en-1-one] | + (+ indicates binding activity greater than 0% and up to 50%) |
| C=CC(=O)N1CCN(c2c(C#N)cnc3c(F)c(-c4c(C)ccc5cnn(C)c45)c(Cl)cc23)CC1 [Compound 11, 4-(4-acryloylpiperazin-1-yl)-6-chloro-7-(1,6-dimethyl-1H-indazol-7-yl)-8-fluoroquinoline-3-carbonitrile] | +++ (+++ indicates binding activity greater than 85%) |
| C=CC(=O)N1CCN(c2c(C#N)cnc3c(F)c(-c4c(C)ccc5[nH]nc(C)c45)c(Cl)cc23)CC1 [Compound 12, 4-(4-acryloylpiperazin-1-yl)-6-chloro-7-(3,5-dimethyl-1H-indazol-4-yl)-8-fluoroquinoline-3-carbonitrile] | ++ (++ indicates binding activity from 50 to 85%) |
| C=CC(=O)N1CCN(c2c(C#N)cnc3c(F)c(-c4c(C)ccc5[nH]nc(C6CC6)c45)c(Cl)cc23)CC1 [Compound 13, 4-(4-acryloylpiperazin-1-yl)-6-chloro-7-(3-cyclopropyl-5-methyl-1H-indazol-4-yl)-8-fluoroquinoline-3-carbonitrile] | +++ (+++ indicates binding activity greater than 85%) |
| C=CC(=O)N1CCN(c2c(C#N)cnc3c(F)c(-c4c(C)ccc5cnn(C6CC6)c45)c(Cl)cc23)CC1 [Compound 14, 4-(4-acryloylpiperazin-1-yl)-6-chloro-7-(1-cyclopropyl-6-methyl-1H-indazol-7-yl)-8-fluoroquinoline-3-carbonitrile] | +++ (+++ indicates binding activity greater than 85%) |
| C=CC(=O)N1CCN(c2cnnc3cc(-c4c(C)ccc5cnn(C)c45)c(Cl)cc23)CC1 [Compound 15, 1-(4-(6-chloro-7-(1,6-dimethyl-1H-indazol-7-yl)cinnolin-4-yl)piperazin-1-yl)prop-2-en-1-one] | + (+ indicates binding activity greater than 0% and up to 50%) |
| C=CC(=O)N1CCN(c2cnnc3cc(-c4c(C)ccc5cnn(C6CC6)c45)c(Cl)cc23)CC1 [Compound 16, 1-(4-(6-chloro-7-(1-cyclopropyl-6-methyl-1H-indazol-7-yl)cinnolin-4-yl)piperazin-1-yl)prop-2-en-1-one] | + (+ indicates binding activity greater than 0% and up to 50%) |
| C=CC(=O)N1CCN(c2cnnc3cc(-c4c(C)ccc5[nH]nc(C)c45)c(Cl)cc23)CC1 [Compound 17, 1-(4-(6-chloro-7-(3,5-dimethyl-1H-indazol-4-yl)cinnolin-4-yl)piperazin-1-yl)prop-2-en-1-one] | + (+ indicates binding activity greater than 0% and up to 50%) |
| C=CC(=O)N1CCN(c2cnnc3cc(-c4c(C)ccc5[nH]nc(C6CC6)c45)c(Cl)cc23)CC1 [Compound 18, 1-(4-(6-chloro-7-(3-cyclopropyl-5-methyl-1H-indazol-4-yl)cinnolin-4-yl)piperazin-1-yl)prop-2-en-1-one] | + (+ indicates binding activity greater than 0% and up to 50%) |
| C=CC(=O)N1C[C@H](C)N(c2c(C#N)cnc3c(F)c(-c4c(C)ccc5cnn(C)c45)c(Cl)cc23)C[C@H]1C [Compound 19, 4-((2S,5R)-4-acryloyl-2,5-dimethylpiperazin-1-yl)-6-chloro-7-(1,6-dimethyl-1H-indazol-7-yl)-8-fluoroquinoline-3-carbonitrile] | + (+ indicates binding activity greater than 0% and up to 50%) |
| C=CC(=O)N1C[C@H](C)N(c2c(C#N)cnc3c(F)c(-c4c(C)ccc5cnn(C6CC6)c45)c(Cl)cc23)C[C@H]1C [Compound 20, 4-((2S,5R)-4-acryloyl-2,5-dimethylpiperazin-1-yl)-6-chloro-7-(1-cyclopropyl-6-methyl-1H-indazol-7-yl)-8-fluoroquinoline-3-carbonitrile] | + (+ indicates binding activity greater than 0% and up to 50%) |
| C=CC(=O)N1C[C@H](C)N(c2c(C#N)cnc3c(F)c(-c4c(C)ccc5[nH]nc(C)c45)c(Cl)cc23)C[C@H]1C [Compound 21, 4-((2S,5R)-4-acryloyl-2,5-dimethylpiperazin-1-yl)-6-chloro-7-(3,5-dimethyl-1H-indazol-4-yl)-8-fluoroquinoline-3-carbonitrile] | + (+ indicates binding activity greater than 0% and up to 50%) |
| C=CC(=O)N1[C@H](C)CN(c2c(C#N)cnc3c(F)c(-c4c(C)ccc5cnn(C)c45)c(Cl)cc23)C[C@@H]1C [Compound 22, 4-((3S,5R)-4-acryloyl-3,5-dimethylpiperazin-1-yl)-6-chloro-7-(1,6-dimethyl-1H-indazol-7-yl)-8-fluoroquinoline-3-carbonitrile] | ++ (++ indicates binding activity from 50 to 85%) |
| C=CC(=O)N1CCN(c2cc(C(F)(F)F)nc3c(F)c(-c4c(C)ccc5cnn(C)c45)c(Cl)cc23)CC1 [Compound 23, 1-(4-(6-chlroo-7-(1,6-dimethyl-1H-indazol-7-yl)-8-fluoro-2-(trifluoromethyl)quino-lin-4-yl)piperazin-1-yl)prop-2-en-1-one] | + (+ indicates binding activity greater than 0% and up to 50%) |
